These results are taken from ChEMBL document CHEMBL5653631, “A Potent and Selective ULK1 Inhibitor Suppresses Autophagy and Sensitizes Cancer Cells to Nutrient Stress” (iScience, 2018).

For experiment [1], the target named is Serine/threonine-protein kinase MRCK beta (Homo sapiens) (UniProt Q9Y5S2). Kind of experiment: Inhibition of human recombinant MRCKb at 40 nM related to control ULK1.
Experiment [2] addresses Mitogen-activated protein kinase 14 (Homo sapiens) (UniProt Q16539). Kind of experiment: Inhibition of human recombinant p38alpha at 500 nM in presence of ATP by radiometric assay relative to control.
Experiment [3] addresses T1, Beta-adrenergic receptor kinase 1 (Homo sapiens) (UniProt P25098).
T1 sequence (whole entry): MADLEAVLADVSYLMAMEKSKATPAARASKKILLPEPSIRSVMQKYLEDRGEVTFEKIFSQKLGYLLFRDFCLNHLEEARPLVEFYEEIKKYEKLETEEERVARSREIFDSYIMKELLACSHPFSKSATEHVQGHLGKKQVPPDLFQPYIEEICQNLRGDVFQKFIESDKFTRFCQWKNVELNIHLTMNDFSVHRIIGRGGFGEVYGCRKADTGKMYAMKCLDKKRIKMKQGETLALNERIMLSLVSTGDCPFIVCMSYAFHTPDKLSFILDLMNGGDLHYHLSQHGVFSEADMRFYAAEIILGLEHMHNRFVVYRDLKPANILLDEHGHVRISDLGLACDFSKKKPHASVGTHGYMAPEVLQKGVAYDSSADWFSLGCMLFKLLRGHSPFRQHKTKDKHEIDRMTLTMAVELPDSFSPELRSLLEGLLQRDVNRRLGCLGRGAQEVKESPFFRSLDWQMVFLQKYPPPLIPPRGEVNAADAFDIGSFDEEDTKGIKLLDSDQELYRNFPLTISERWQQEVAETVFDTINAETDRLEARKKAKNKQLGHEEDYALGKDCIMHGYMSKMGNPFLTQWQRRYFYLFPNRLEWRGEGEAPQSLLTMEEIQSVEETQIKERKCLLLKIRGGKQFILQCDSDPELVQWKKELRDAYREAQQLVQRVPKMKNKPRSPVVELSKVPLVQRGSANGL
Nature of the experiment: Inhibition of human recombinant BARK1 at 500 nM related to control ULK1.

Experiment [4] concerns the target T2, Ephrin type-B receptor 2 (Homo sapiens) (UniProt P29323).
T2 sequence (whole entry): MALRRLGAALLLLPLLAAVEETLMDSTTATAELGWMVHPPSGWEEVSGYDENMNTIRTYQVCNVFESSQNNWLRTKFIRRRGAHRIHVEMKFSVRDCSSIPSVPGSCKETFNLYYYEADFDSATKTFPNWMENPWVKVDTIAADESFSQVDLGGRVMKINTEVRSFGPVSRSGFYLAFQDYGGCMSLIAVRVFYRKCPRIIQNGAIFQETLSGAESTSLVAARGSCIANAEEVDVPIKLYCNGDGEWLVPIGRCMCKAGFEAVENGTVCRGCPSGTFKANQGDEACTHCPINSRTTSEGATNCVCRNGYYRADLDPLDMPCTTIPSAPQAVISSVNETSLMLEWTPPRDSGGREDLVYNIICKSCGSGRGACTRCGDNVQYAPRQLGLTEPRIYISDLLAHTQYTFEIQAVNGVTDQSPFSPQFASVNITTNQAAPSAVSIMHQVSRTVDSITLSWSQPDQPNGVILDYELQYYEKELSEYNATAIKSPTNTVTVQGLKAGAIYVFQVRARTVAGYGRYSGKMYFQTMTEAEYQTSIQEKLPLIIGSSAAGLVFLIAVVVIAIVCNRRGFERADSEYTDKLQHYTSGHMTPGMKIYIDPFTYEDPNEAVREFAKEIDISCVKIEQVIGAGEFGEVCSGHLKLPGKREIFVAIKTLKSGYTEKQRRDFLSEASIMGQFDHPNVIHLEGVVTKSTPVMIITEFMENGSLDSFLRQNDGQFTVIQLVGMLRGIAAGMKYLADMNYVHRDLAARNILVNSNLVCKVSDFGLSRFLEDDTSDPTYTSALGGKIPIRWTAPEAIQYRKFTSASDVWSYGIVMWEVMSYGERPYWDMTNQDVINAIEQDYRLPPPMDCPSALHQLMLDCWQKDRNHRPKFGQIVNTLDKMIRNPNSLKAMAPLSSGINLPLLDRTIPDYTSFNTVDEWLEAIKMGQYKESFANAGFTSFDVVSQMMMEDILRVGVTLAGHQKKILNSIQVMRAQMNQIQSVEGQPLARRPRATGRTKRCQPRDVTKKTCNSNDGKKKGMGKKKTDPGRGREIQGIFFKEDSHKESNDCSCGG
Nature of the experiment: Inhibition of human recombinant EphB2 at 500 nM related to control ULK1.

In experiment [5] the target is T3, Serine/threonine-protein kinase ULK2 (Homo sapiens) (UniProt Q8IYT8).
T3 sequence (whole entry): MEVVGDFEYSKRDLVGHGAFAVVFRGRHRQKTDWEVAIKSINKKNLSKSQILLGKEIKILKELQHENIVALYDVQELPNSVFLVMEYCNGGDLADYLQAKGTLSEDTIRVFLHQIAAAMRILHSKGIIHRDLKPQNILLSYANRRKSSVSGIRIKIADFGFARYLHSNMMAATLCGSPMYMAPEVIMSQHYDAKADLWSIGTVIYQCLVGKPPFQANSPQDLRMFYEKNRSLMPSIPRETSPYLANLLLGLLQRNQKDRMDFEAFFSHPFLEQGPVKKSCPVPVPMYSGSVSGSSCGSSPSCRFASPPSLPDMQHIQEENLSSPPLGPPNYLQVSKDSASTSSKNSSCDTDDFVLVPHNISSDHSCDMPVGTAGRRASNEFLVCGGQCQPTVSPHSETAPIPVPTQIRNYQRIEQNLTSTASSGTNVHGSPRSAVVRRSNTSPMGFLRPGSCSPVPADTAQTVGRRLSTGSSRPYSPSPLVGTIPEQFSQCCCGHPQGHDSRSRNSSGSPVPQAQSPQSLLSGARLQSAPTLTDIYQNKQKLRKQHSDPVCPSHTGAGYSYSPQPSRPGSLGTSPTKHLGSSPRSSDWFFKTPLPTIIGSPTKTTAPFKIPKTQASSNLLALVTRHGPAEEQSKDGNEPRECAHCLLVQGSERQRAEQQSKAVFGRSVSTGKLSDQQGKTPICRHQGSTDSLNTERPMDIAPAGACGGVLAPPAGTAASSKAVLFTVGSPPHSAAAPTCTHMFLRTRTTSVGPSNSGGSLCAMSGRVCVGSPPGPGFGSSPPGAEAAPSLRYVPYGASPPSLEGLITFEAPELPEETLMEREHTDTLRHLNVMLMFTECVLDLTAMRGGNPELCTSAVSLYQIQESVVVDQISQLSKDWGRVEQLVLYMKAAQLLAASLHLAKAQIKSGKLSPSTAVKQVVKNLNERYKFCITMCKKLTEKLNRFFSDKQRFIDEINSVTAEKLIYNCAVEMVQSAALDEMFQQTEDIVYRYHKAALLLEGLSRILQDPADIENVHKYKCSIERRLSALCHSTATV
Kind of experiment: Inhibition of human recombinant ULK2 at 500 nM related to control ULK1.

Sequence of Mitogen-activated protein kinase 14 (Homo sapiens) (Q16539 whole entry): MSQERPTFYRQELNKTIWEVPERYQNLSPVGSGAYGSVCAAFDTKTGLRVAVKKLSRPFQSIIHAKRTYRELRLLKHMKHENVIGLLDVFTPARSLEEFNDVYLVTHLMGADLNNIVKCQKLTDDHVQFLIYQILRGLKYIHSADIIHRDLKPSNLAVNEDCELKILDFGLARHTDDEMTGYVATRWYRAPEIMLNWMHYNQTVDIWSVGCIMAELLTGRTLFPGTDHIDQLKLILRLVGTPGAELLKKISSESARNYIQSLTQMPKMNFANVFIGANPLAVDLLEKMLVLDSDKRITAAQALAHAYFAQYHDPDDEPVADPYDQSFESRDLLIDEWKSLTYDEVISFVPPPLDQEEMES
Sequence of Serine/threonine-protein kinase MRCK beta (Homo sapiens) (Q9Y5S2 whole entry): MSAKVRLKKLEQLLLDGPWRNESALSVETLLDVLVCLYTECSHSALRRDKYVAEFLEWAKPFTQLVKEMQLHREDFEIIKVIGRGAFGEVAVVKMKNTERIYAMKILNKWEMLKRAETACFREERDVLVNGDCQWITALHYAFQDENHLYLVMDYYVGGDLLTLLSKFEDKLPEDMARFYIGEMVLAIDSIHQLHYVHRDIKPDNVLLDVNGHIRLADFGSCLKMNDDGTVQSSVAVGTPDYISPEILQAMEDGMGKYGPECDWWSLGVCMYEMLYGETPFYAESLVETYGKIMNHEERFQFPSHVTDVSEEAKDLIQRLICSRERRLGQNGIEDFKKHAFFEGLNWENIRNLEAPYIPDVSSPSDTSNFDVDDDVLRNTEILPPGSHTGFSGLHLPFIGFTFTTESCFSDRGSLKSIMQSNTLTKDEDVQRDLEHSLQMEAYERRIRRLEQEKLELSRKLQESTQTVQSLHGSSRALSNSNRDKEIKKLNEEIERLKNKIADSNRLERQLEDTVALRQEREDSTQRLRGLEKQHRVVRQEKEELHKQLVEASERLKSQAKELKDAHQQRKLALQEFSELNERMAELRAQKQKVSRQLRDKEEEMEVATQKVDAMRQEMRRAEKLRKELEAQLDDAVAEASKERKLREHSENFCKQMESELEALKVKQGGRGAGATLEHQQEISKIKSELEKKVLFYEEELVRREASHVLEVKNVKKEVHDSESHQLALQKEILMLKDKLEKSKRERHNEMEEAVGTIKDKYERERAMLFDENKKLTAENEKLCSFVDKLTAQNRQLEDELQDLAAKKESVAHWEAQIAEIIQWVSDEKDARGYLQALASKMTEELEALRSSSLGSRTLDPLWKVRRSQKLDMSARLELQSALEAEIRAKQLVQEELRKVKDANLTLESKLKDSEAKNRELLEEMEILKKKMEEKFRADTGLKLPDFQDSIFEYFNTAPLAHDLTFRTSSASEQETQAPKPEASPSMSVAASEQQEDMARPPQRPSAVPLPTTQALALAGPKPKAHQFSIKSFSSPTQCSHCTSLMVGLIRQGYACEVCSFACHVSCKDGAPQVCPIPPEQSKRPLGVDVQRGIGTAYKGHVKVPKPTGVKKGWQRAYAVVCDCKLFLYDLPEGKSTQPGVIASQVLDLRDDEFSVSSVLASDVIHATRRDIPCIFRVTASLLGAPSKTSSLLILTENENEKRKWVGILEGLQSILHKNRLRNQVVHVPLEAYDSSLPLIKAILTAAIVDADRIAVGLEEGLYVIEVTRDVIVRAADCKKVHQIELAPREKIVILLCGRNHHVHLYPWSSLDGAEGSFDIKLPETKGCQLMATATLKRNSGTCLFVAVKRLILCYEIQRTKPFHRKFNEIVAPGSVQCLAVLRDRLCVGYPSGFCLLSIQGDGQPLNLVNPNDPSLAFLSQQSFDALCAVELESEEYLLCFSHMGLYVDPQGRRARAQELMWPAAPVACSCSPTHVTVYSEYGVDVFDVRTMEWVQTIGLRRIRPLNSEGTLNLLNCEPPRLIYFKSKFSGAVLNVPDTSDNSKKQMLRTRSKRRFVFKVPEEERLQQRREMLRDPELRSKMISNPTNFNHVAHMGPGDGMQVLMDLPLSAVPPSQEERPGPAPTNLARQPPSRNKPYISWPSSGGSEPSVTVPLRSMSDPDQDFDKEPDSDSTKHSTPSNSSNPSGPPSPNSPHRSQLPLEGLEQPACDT

Take `O=C(N[C@@H](C1CC1)C(F)(F)F)c1cc(-c2cnn3cc(-c4ccc(F)cc4)cnc23)cs1`: the fold change (FC) in experiment [1] came to 0.07.
One may read the inhibition as the percentage by which the read-out fell short of the control. `CNC(=O)c1ccccc1Oc1nc(Nc2cc(OC)c(OC)c(OC)c2)ncc1Br`: the inhibition in experiment [2] was determined as 5%. In addition, the fold change (FC) in experiment [3] came to 0.11; in experiment [4], 0.2; in experiment [5], 0.65.
